Laboratory results from patent US9995679B2, “Targeted probes of cellular physiology” (Carnegie Mellon University, priority 2010, dated 2018).
“Also recorded” adds a separate entry of the source.

Legend:
[1] = Calcium titration curve of MG-PEG7-Rhod2 sodium salt with dL5, fluorescence by plate reader; type: binding; details: with dL5 (tandem dimer of L5-MG E52D L91S); free Ca 0-39 μM calibration buffers; FIG. 15
Protocol: A calcium titration curve for MG-PEG7-Rhod2 sodium salt (compound 18 of Example 8, was measured.
Compound 18 and 2 μL of dL5 (A tandem dimer of L5-MG E52D L91S (FIG. 1A) separated by a G4S linker) is dissolved in each 600 μL of 0 calcium solution^1 (solution A, Invitrogen™ Cat. no. C-3008MP Calcium Calibration Buffer Kit #1) and 600 μL 39 calcium solution (solution B, Invitrogen™ Cat. no. C-3008MP Calcium Calibration Buffer Kit #1). Each volume of A and B solutions was added into 96 well black plate as described in Table 1.
And then, each solution was measured fluorescence by plate reader (TECAN safire2).

[2] = system: malachite green binding FAP clone; experiment: Fluorescence correlation spectroscopy (FCS) of dye with MG-binding FAP; details: 500-fold molar excess of protein, FIG. 6
From the text: To assess the feasibility of this approach, two key criteria have been met. First, the spectral properties of Rhod-2 are almost identical to the CY3 that has already been used as a successful donor molecule. Second, the rhodamine moiety, which is structurally similar to malachite green, has been shown not to bind or block binding of the MG-binding FAP module. […] These findings support the design of this probe.

[3] = system: selected modules (FAP) that activate malachite green; experiment: Fluorogen activation by selected FAP modules (switching ratio); type: biochemical; details: in buffer
From the text: Malachite green can serve as an acceptor, as we already have selected modules that activate it with switching ratios of >15,000 fold in buffer. Additional fluorogens may be designed and synthesized. Unsymmetric polymethine dyes, and analogs of indocyanine green may be used as fluorogens, as can many of the polarity sensing dyes (e.g. merocyanine and styryl dyes) with far-red and near IR emission. Fluorogens are screened for nonspecific activation in cell lysate before incorporation into the biosensor composition. Quenching and activation by selected FAP modules are characterized in buffer and cell lysate to determine the activation ratio. FAP/biosensor pairs with acceptable switching ratios are characterized by FCS and TIRF-single molecule microscopy.

MG-PEG7-Rhod2 Sodium Salt [Compound 18]
mid-point for calcium binding (ratio of rhod2 excitation peak to MG excitation peak at ~640 nm vs free calcium) [1]: 0.5 micro molar

CCN(CC)c1ccc2c(-c3ccccc3C(=O)O)c3ccc(=[N+](CC)CC)cc-3oc2c1.[Cl-] [rhodamine B]
binding to / inhibition of MG binding of the malachite green binding FAP [2]: does not associate with the malachite green binding clone; also recorded: neither binds to nor inhibits normal binding

CN(C)c1ccc(C(=C2C=CC(=[N+](C)C)C=C2)c2ccccc2)cc1 [Malachite green]
switching ratio (fluorescence activation by FAP) [3]: > 15,000 fold
